Source: US7138361B2, “Herbicidal heterocycles” (E. I. du Pont de Nemours and Company, priority 2000, dated 2006)

Assays:
Format in all cases: in vivo
[1] = test system: crabgrass (Digitaria sanguinalis); test: Test C preemergence; conditions: for Plant response rating (0 to 100), Crabgrass: Rate 250 g/ha, visual evaluation after 12 to 14 days
Source text: (§1) Seeds of plant species selected from bermudagrass (Cynodon dactylon), Surinam grass (Brachiaria decumbens), cocklebur (Xanthium strumarium), corn (Zea mays), crabgrass (Digitaria sanguinalis), woolly cupgrass (Eriochloa villosa), giant foxtail (Setaria faberii), goosegrass (Eleusine indica), johnsongrass (Sorghum halepense), kochia (Kochia scoparia), lambsquarters (Chenopodium album), morningglory (Ipomoea hederacea), yellow nutsedge (Cyperus esculentus), pigweed (Amaranthus retroflexus), common ragweed (Ambrosia elatior), soybean (Glycine max) and velvetleaf (Abutilon theophrasti) were planted and treated preemergence with test chemicals formulated in a non-phytotoxic solvent mixture which included a surfactant.
(§2) At the same time, plants selected from these crop and weed species and also winter barley (Hordeum vulgare), blackgrass (Alopecurus myosuroides), canary grass (Phalaris minor), chickweed (Stellaria media), downy brome (Bromus tectorum), green foxtail (Setaria viridis), Italian ryegrass (Lolium multiflorum), wheat (Triticum aestivum), wild oat (Avena fatua) and windgrass (Apera spica-venti) were treated with postemergence applications of some of the test chemicals formulated in the same manner. Plants ranged in height from 2 to 18 cm (1- to 4-leaf stage) for postemergence treatments. Plant species in the flooded paddy test consisted of rice (Oryza saliva), smallflower flatsedge (Cyperus difformis), duck salad (Heteranthera limosa) and barnyardgrass (Echinochloa crus-galli) grown to the 2-leaf stage for testing. Treated plants and controls were maintained in a greenhouse for 12 to 14 days, after which time all species were compared to controls and visually evaluated. Plant response ratings, summarized in Table C, are based on a scale of 0 to 100 where 0 is no effect and 100 is complete control. A dash (-) response means no test result.

[2] = test system: woolly cupgrass (Eriochloa villosa); test: Test C preemergence; conditions: for Plant response rating (0 to 100), Cupgrass, Woolly: Rate 250 g/ha, visual evaluation after 12 to 14 days
Source text: as §1, §2

[3] = test system: kochia (Kochia scoparia); test: Test C preemergence
Source text: as §1, §2

[4] = test system: bermudagrass (Cynodon dactylon); test: Test C preemergence; conditions: for Plant response rating (0 to 100 where 0 is no effect and 100 is complete control), Bermudagrass: Rate 250 g/ha, visual evaluation after 12 to 14 days
Source text: as §1, §2

[5] = test system: cocklebur (Xanthium strumarium); test: Test C preemergence; conditions: for Plant response rating (0 to 100), Cocklebur: Rate 250 g/ha, visual evaluation after 12 to 14 days
Source text: as §1, §2

[6] = test system: pigweed (Amaranthus retroflexus); test: Test C preemergence; conditions: for Plant response rating (0 to 100), Pigweed: Rate 250 g/ha, visual evaluation after 12 to 14 days
Source text: as §1, §2

[7] = test system: soybean (Glycine max); test: Test C preemergence; conditions: for Plant response rating (0 to 100), Soybean: Rate 250 g/ha, visual evaluation after 12 to 14 days
Source text: as §1, §2

[8] = test system: Surinam grass (Brachiaria decumbens); test: Test C preemergence; conditions: for Plant response rating (0 to 100), Surinam grass: Rate 250 g/ha, visual evaluation after 12 to 14 days
Source text: as §1, §2

[9] = test system: giant foxtail (Setaria faberii); test: Test C preemergence; conditions: for Plant response rating (0 to 100), Foxtail, Giant: Rate 250 g/ha, visual evaluation after 12 to 14 days
Source text: as §1, §2

[10] = test system: crabgrass (Digitaria sanguinalis); test: Test B preemergence; conditions: scale 0 to 100, 0 no effect, 100 complete control
In short: (§3)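 Visual injury scores, 0 = no effect to 100 = complete control, assigned against controls after 13 to 15 days in the greenhouse. Compounds formulated in non-phytotoxic solvent plus surfactant and applied to soil after planting (pre) or onto foliage of 1- to 4-leaf plants (post).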

[11] = test system: morning glory (Ipomoea hederacea); test: Test B preemergence; conditions: scale 0 to 100, 0 no effect, 100 complete control
In short: as §3

[12] = test system: velvetleaf (Abutilon theophrasti); test: Test B preemergence; conditions: scale 0 to 100, 0 no effect, 100 complete control
In short: as §3

[13] = test system: barnyardgrass (Echinochloa crus-galli); test: Test B preemergence; conditions: scale 0 to 100, 0 no effect, 100 complete control
In short: as §3

[14] = test system: corn (Zea mays); test: Test B preemergence; conditions: scale 0 to 100, 0 no effect, 100 complete control
In short: as §3

[15] = test system: cocklebur (Xanthium strumarium); test: Test B preemergence; conditions: scale 0 to 100, 0 no effect, 100 complete control
In short: as §3

[16] = test system: pigweed (Amaranthus retroflexus); test: Test B preemergence; conditions: scale 0 to 100, 0 no effect, 100 complete control
In short: as §3

[17] = test system: lambsquarters (Chenopodium album); test: Test B preemergence; conditions: scale 0 to 100, 0 no effect, 100 complete control
In short: as §3

[18] = test system: rice (Oryza saliva); test: Test B preemergence; conditions: scale 0 to 100, 0 no effect, 100 complete control
In short: as §3

[19] = test system: Surinam grass (Brachiaria decumbens); test: Test B preemergence; conditions: scale 0 to 100, 0 no effect, 100 complete control
In short: as §3

[20] = test system: giant foxtail (Setaria faberii); test: Test B preemergence; conditions: scale 0 to 100, 0 no effect, 100 complete control
In short: as §3

[21] = test system: Sunflower; test: Test C preemergence; conditions: Rate 125 g/ha, scale 0 to 100, 0 no effect, 100 complete control
[22] = test system: Nightshade; test: Test C preemergence; conditions: Rate 250 g/ha, visual evaluation after 12 to 14 days
[23] = Preemergence, Rate 500 g/ha, scale 0 to 100
[24] = Rate 62 g/ha, scale 0 to 100, 0 no effect, 100 complete control
[25] = preemergence, Rate 125 g/ha, scale 0 to 100, 0 no effect, 100 complete control

O=C1C(n2ccc(C3CC3)n2)CCN1c1cccc(C(F)(F)F)c1 (centres unmarked) [Compound 8]
80: Plant response rating, Cupgrass, Woolly [2, 23] | Plant response rating, Pigweed [6, 25]
30: Plant response rating, Crabgrass ([10]; preemergence, Rate 125 g/ha)
90: Plant response rating (0 to 100), Crabgrass ([1]; preemergence) | Plant response rating (0 to 100), Foxtail, Giant ([9]; preemergence) | Plant response rating, Foxtail, Giant ([20]; Preemergence, Rate 500 g/ha)
0: Plant response rating, Cupgrass, Woolly [2, 24] | Plant response rating, Kochia [3, 24] | Plant response rating, Kochia [3, 25] | Plant response rating, Bermudagrass [4, 24] | Plant response rating, Cocklebur [5, 23] | Plant response rating, Cocklebur [5, 24] | Plant response rating (0 to 100), Cocklebur ([5]; preemergence) | Plant response rating, Cocklebur [5, 25] | Plant response rating, Soybean [7, 24] | Plant response rating, Soybean [7, 25] | Plant response rating, Surinam grass [8, 24] | Plant response rating, Surinam grass [8, 25] | Plant response rating, Foxtail, Giant [9, 24] | Plant response rating, Morningglory ([11]; Preemergence, Rate 500 g/ha) | Plant response rating, Morningglory ([11]; preemergence, Rate 125 g/ha) | Plant response rating, Velvetleaf ([12]; Preemergence, Rate 500 g/ha) | Plant response rating, Velvetleaf ([12]; preemergence, Rate 125 g/ha) | Plant response rating, Barnyardgrass ([13]; preemergence, Rate 125 g/ha) | Plant response rating, Corn ([14]; Preemergence, Rate 500 g/ha) | Plant response rating, Corn ([14]; preemergence, Rate 125 g/ha) | Plant response rating, Cocklebur ([15]; Preemergence, Rate 500 g/ha) | Plant response rating, Cocklebur ([15]; preemergence, Rate 125 g/ha) | Plant response rating, Lambsquarters ([17]; preemergence, Rate 125 g/ha) | Plant response rating, Rice ([18]; Preemergence, Rate 500 g/ha) | Plant response rating, Rice ([18]; preemergence, Rate 125 g/ha) | Plant response rating, Sunflower [21] | Plant response rating (0 to 100), Nightshade [22]
40: Plant response rating, Cupgrass, Woolly [2, 25] | Plant response rating, Foxtail, Giant ([20]; preemergence, Rate 125 g/ha)
50: Plant response rating (0 to 100), Cupgrass, Woolly ([2]; preemergence) | Plant response rating (0 to 100), Surinam grass ([8]; preemergence)
100: Plant response rating, Crabgrass [1, 23] | Plant response rating, Bermudagrass [4, 23] | Plant response rating, Pigweed [6, 23] | Plant response rating (0 to 100), Pigweed ([6]; preemergence) | Plant response rating, Foxtail, Giant [9, 23] | Plant response rating, Crabgrass ([10]; Preemergence, Rate 500 g/ha) | Plant response rating, Pigweed ([16]; Preemergence, Rate 500 g/ha) | Plant response rating, Lambsquarters ([17]; Preemergence, Rate 500 g/ha)
20: Plant response rating (0 to 100), Kochia ([3]; preemergence, Rate 250 g/ha, visual evaluation after 12 to 14 days) | Plant response rating, Pigweed [6, 24] | Plant response rating, Soybean [7, 23] | Plant response rating (0 to 100), Soybean ([7]; preemergence) | Plant response rating, Foxtail, Giant [9, 25] | Plant response rating, Pigweed ([16]; preemergence, Rate 125 g/ha) | Plant response rating, Surinam grass ([19]; preemergence, Rate 125 g/ha)
60: Plant response rating, Surinam grass [8, 23]
70: Plant response rating, Crabgrass [1, 24] | Plant response rating, Crabgrass [1, 25] | Plant response rating, Kochia [3, 23] | Plant response rating (0 to 100 where 0 is no effect and 100 is complete control), Bermudagrass ([4]; preemergence) | Plant response rating, Bermudagrass [4, 25] | Plant response rating, Barnyardgrass ([13]; Preemergence, Rate 500 g/ha) | Plant response rating, Surinam grass ([19]; Preemergence, Rate 500 g/ha)

CCC(C)c1ccn(C2SCN(c3cccc(OC(F)(F)F)c3)C2=O)n1 (centres unmarked) [Compound 32]
20: Plant response rating, Pigweed [6, 25]
90: Plant response rating, Cupgrass, Woolly [2, 23] | Plant response rating (0 to 100), Cupgrass, Woolly ([2]; preemergence) | Plant response rating, Bermudagrass [4, 25] | Plant response rating, Surinam grass [8, 23] | Plant response rating (0 to 100), Nightshade [22]
80: Plant response rating, Pigweed [6, 23] | Plant response rating (0 to 100), Surinam grass ([8]; preemergence) | Plant response rating, Surinam grass [8, 25] | Plant response rating, Barnyardgrass ([13]; preemergence, Rate 125 g/ha)
0: Plant response rating, Cocklebur [5, 23] | Plant response rating, Cocklebur [5, 24] | Plant response rating (0 to 100), Cocklebur ([5]; preemergence) | Plant response rating, Morningglory ([11]; Preemergence, Rate 500 g/ha) | Plant response rating, Velvetleaf ([12]; Preemergence, Rate 500 g/ha) | Plant response rating, Corn ([14]; Preemergence, Rate 500 g/ha) | Plant response rating, Corn ([14]; preemergence, Rate 125 g/ha) | Plant response rating, Cocklebur ([15]; Preemergence, Rate 500 g/ha) | Plant response rating, Rice ([18]; Preemergence, Rate 500 g/ha) | Plant response rating, Sunflower [21]
40: Plant response rating, Surinam grass ([19]; preemergence, Rate 125 g/ha)
50: Plant response rating, Bermudagrass [4, 24] | Plant response rating, Soybean [7, 24] | Plant response rating, Soybean [7, 25] | Plant response rating, Foxtail, Giant [9, 25]
70: Plant response rating, Cupgrass, Woolly [2, 25] | Plant response rating, Pigweed [6, 24] | Plant response rating (0 to 100), Pigweed ([6]; preemergence) | Plant response rating, Surinam grass [8, 24] | Plant response rating, Foxtail, Giant [9, 24] | Plant response rating, Foxtail, Giant ([20]; preemergence, Rate 125 g/ha)
60: Plant response rating, Cupgrass, Woolly [2, 24] | Plant response rating, Soybean [7, 23] | Plant response rating (0 to 100), Soybean ([7]; preemergence) | Plant response rating, Crabgrass ([10]; preemergence, Rate 125 g/ha) | Plant response rating, Surinam grass ([19]; Preemergence, Rate 500 g/ha)
100: Plant response rating, Crabgrass [1, 23] | Plant response rating, Crabgrass [1, 24] | Plant response rating (0 to 100), Crabgrass ([1]; preemergence) | Plant response rating, Crabgrass [1, 25] | Plant response rating, Bermudagrass [4, 23] | Plant response rating (0 to 100 where 0 is no effect and 100 is complete control), Bermudagrass ([4]; preemergence) | Plant response rating, Foxtail, Giant [9, 23] | Plant response rating (0 to 100), Foxtail, Giant ([9]; preemergence) | Plant response rating, Crabgrass ([10]; Preemergence, Rate 500 g/ha) | Plant response rating, Barnyardgrass ([13]; Preemergence, Rate 500 g/ha) | Plant response rating, Pigweed ([16]; Preemergence, Rate 500 g/ha) | Plant response rating, Lambsquarters ([17]; Preemergence, Rate 500 g/ha) | Plant response rating, Lambsquarters ([17]; preemergence, Rate 125 g/ha) | Plant response rating, Foxtail, Giant ([20]; Preemergence, Rate 500 g/ha)
